According to patent publication EP4707280A1, “1,4-CINEOLE DERIVATIVE AND INTERMEDIATE THEREOF, HERBICIDE CONTAINING SAID DERIVATIVE AS ACTIVE INGREDIENT, METHOD FOR USING HERBICIDE, AND METHOD FOR PREPARING AGROCHEMICAL COMPOSITION” (HOKKO CHEMICAL INDUSTRY CO., LTD., priority 2023, dated 2024):

Assays:
Format in all cases: in vivo
[1] = test system: Echinochloa crus-galli var. formosensis; assay: Test Example 1: herbicidal effect test by soil application in paddy rice; conditions: Echinochloa crus-galli, soil, 336 h; 120 g active ingredient per 10 ares; applied immediately after sowing, flooded pots; 14 days after application; read-out: weed inhibition rate
Outline: (§1)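 Treatment: 120 g active ingredient per 10 ares as a water-diluted emulsifiable concentrate, dropped onto flooded pots immediately after sowing. Thirty seeds per species went 0–1 cm into puddled paddy soil with 16:16:16 fertilizer, with ~3 cm flooding maintained in a glass greenhouse.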

Scirpus juncoides [2] = assay: as above; conditions: Schoenoplectiella juncoides, soil, 336 h; 120 g active ingredient per 10 ares; applied immediately after sowing, flooded pots; 14 days after application; read-out: weed inhibition rate
Outline: as §1

Monochoria vaginalis [3] = assay: as above; conditions: Pontederia vaginalis, soil, 336 h; 120 g active ingredient per 10 ares; applied immediately after sowing, flooded pots; 14 days after application; read-out: weed inhibition rate
Outline: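 Inhibition rate (%) read 14 days after treatment, duplicate pots. Water-diluted emulsifiable concentrate was applied by dropper at 120 g active ingredient/10 ares right after sowing. Seeds (30 per species, 0–1 cm deep) went into puddled paddy soil kept flooded at about 3 cm in a greenhouse.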

Lindernia pyxidaria = assay: Test Example 2: herbicidal effect test by application during growth period of paddy rice; conditions: 120 g per 10 ares, applied seven days after sowing, flooded pots, 14 days after application, read-out: weed inhibition rate
Outline: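 Paddy soil in flooded pots (water depth about 3 cm) was sown with weed seeds and kept in a glass greenhouse. Seven days after sowing, a diluted emulsifiable concentrate was applied by dropper at 120 g active ingredient per 10 ares. Weed inhibition was evaluated 14 days after application, in duplicate.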

Amaranthus viridis = assay: Test Example 3: herbicidal effect test by soil application in upland field; conditions: Amaranthus viridis, 120 g per 10 ares, sprayed one day after sowing, 14 days after application, read-out: weed inhibition rate
Outline: (§2)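 Weed inhibition (%) was assessed 14 days after treatment, in duplicate per concentration group. Seeds had been mixed into the upper 1 cm of upland alluvial loam, and the soil surface was sprayed one day later with the diluted emulsifiable concentrate at 120 g active ingredient per 10 ares.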

Chenopodium album = assay: as above; conditions: 120 g per 10 ares, sprayed one day after sowing, 14 days after application, read-out: weed inhibition rate
Outline: as §2

Digitaria ciliaris [4] = assay: as above; conditions: Digitaria ciliaris, 120 g per 10 ares, sprayed one day after sowing, 14 days after application, read-out: weed inhibition rate
Outline: as §2

Echinochloa crus-galli [5] = assay: as above; conditions: Echinochloa crus-galli, 120 g per 10 ares, sprayed one day after sowing, 14 days after application, read-out: weed inhibition rate
Outline: as §2

Monochoria vaginalis [6] = assay: Test Example 6: herbicidal effect test by application during growth period of paddy rice (low dose); conditions: Pontederia vaginalis; 7.5 g per 10 ares; applied seven days after sowing, flooded pots; 14 days after application; read-out: weed inhibition rate
Outline: (§3)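 Emulsifiable concentrate, water-diluted, dropped onto flooded paddy pots 7 days post-sowing at 7.5 g active ingredient/10 a. Greenhouse-grown weeds; percent inhibition scored at day 14 after treatment.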

Scirpus juncoides [7] = assay: as above; conditions: Schoenoplectiella juncoides; 7.5 g per 10 ares; applied seven days after sowing, flooded pots; 14 days after application; read-out: weed inhibition rate
Outline: as §3

Digitaria ciliaris [8] = assay: Test Example 8: herbicidal effect test by stem and leaf treatment in upland field (low dose); conditions: Digitaria ciliaris; 7.5 g per 10 ares; sprayed seven days after sowing, upland soil; 14 days after application; read-out: weed inhibition rate
Echinochloa crus-galli [9] = assay: as above; conditions: Echinochloa crus-galli; 7.5 g per 10 ares; sprayed seven days after sowing, upland soil; 14 days after application; read-out: weed inhibition rate

CC(C)[C@]12C[C@@H](OCc3ccccc3F)[C@](C)(CC1OCC1CC1)O2 (mixture of isomers) [1-921, (1S,2R,4R,SR)-5-(cyclopropylmethoxy)-2-[(2-fluorophenyl)methoxy]-1-methyl-4-isopropyl-7-oxabicyclo[2.2.1]heptane]
≥ 80%: pest or weed control at 1200 g/ha [1] | pest or weed control at 1200 g/ha (Scirpus juncoides [2]) | pest or weed control at 1200 g/ha (Monochoria vaginalis [3]) | inhibition at 1200 g/ha (Lindernia pyxidaria) | inhibition at 1200 g/ha (Amaranthus viridis) | inhibition at 1200 g/ha (Chenopodium album) | inhibition at 1200 g/ha (Digitaria ciliaris [4]) | inhibition at 1200 g/ha (Echinochloa crus-galli [5]) | inhibition at 75 g/ha (Monochoria vaginalis [6]) | inhibition at 75 g/ha (Scirpus juncoides [7]) | inhibition at 75 g/ha (Digitaria ciliaris [8]) | inhibition at 75 g/ha (Echinochloa crus-galli [9])

CC(C)[C@]12C=C[C@](C)(O1)C(OCc1ccccc1F)C2 (mixture of isomers) [3-5, (1R,4S,SR)-5-[(2-fluorophenyl)methoxy]-4-methyl-1-isopropyl-7-oxabicyclo[2.2.1]hept-2-ene]
≥ 80%: pest or weed control at 1200 g/ha [1] | pest or weed control at 1200 g/ha (Scirpus juncoides [2]) | pest or weed control at 1200 g/ha (Monochoria vaginalis [3]) | inhibition at 1200 g/ha (Lindernia pyxidaria) | inhibition at 1200 g/ha (Amaranthus viridis) | inhibition at 1200 g/ha (Chenopodium album) | inhibition at 1200 g/ha (Digitaria ciliaris [4]) | inhibition at 1200 g/ha (Echinochloa crus-galli [5]) | inhibition at 75 g/ha (Monochoria vaginalis [6]) | inhibition at 75 g/ha (Scirpus juncoides [7]) | inhibition at 75 g/ha (Digitaria ciliaris [8]) | inhibition at 75 g/ha (Echinochloa crus-galli [9])

Cc1ccccc1CO[C@@H]1C[C@]2(C(C)C)O[C@@]1(C)C[C@@H]2F [1-2, (1R,2S,4S,5R)-2-fluoro-1-isopropyl-4-methyl-5-((2-methylbenzyl)oxy)-7-oxabicyclo[2.2.1]heptane]
≥ 80%: pest or weed control at 1200 g/ha [1] | pest or weed control at 1200 g/ha (Scirpus juncoides [2]) | pest or weed control at 1200 g/ha (Monochoria vaginalis [3]) | inhibition at 1200 g/ha (Lindernia pyxidaria) | inhibition at 1200 g/ha (Chenopodium album) | inhibition at 1200 g/ha (Digitaria ciliaris [4]) | inhibition at 1200 g/ha (Echinochloa crus-galli [5]) | inhibition at 75 g/ha (Monochoria vaginalis [6]) | inhibition at 75 g/ha (Scirpus juncoides [7]) | inhibition at 75 g/ha (Digitaria ciliaris [8]) | inhibition at 75 g/ha (Echinochloa crus-galli [9])

CC(C)[C@]12C[C@@H](OCc3ccccc3F)[C@](C)(C[C@@H]1Br)O2 [1-19, (1S,2R,4R,5S)-5-bromo-2-[(2-fluorophenyl)methoxy]-1-methyl-4-isopropyl-7-oxabicyclo[2.2.1]heptane]
≥ 80%: pest or weed control at 1200 g/ha [1] | pest or weed control at 1200 g/ha (Scirpus juncoides [2]) | pest or weed control at 1200 g/ha (Monochoria vaginalis [3]) | inhibition at 1200 g/ha (Lindernia pyxidaria) | inhibition at 1200 g/ha (Chenopodium album) | inhibition at 1200 g/ha (Digitaria ciliaris [4]) | inhibition at 1200 g/ha (Echinochloa crus-galli [5]) | inhibition at 75 g/ha (Digitaria ciliaris [8]) | inhibition at 75 g/ha (Echinochloa crus-galli [9])

C=CCO[C@@H]1C[C@]2(C)O[C@@]1(C(C)C)C[C@H]2OCc1ccccc1F [1-930, (1S,2R,4R,5R)-2-[(2-fluorophenyl)methoxy]-1-methyl-4-isopropyl-5-prop-2-enoxy-7-oxabicyclo[2.2.1]heptane]
≥ 80%: pest or weed control at 1200 g/ha [1] | pest or weed control at 1200 g/ha (Scirpus juncoides [2]) | pest or weed control at 1200 g/ha (Monochoria vaginalis [3]) | inhibition at 1200 g/ha (Lindernia pyxidaria) | inhibition at 1200 g/ha (Amaranthus viridis) | inhibition at 1200 g/ha (Chenopodium album) | inhibition at 1200 g/ha (Digitaria ciliaris [4]) | inhibition at 1200 g/ha (Echinochloa crus-galli [5]) | inhibition at 75 g/ha (Monochoria vaginalis [6]) | inhibition at 75 g/ha (Scirpus juncoides [7]) | inhibition at 75 g/ha (Digitaria ciliaris [8]) | inhibition at 75 g/ha (Echinochloa crus-galli [9])

C#CCO[C@@H]1C[C@]2(C)O[C@@]1(C(C)C)C[C@H]2OCc1ccccc1F [1-931, (1S,2R,4R,5R)-2-[(2-fluorophenyl)methoxy]-1-methyl-4-isopropyl-5-prop-2-ynoxy-7-oxabicyclo[2.2.1]heptane]
≥ 80%: pest or weed control at 1200 g/ha [1] | pest or weed control at 1200 g/ha (Scirpus juncoides [2]) | pest or weed control at 1200 g/ha (Monochoria vaginalis [3]) | inhibition at 1200 g/ha (Lindernia pyxidaria) | inhibition at 1200 g/ha (Amaranthus viridis) | inhibition at 1200 g/ha (Chenopodium album) | inhibition at 1200 g/ha (Digitaria ciliaris [4]) | inhibition at 1200 g/ha (Echinochloa crus-galli [5]) | inhibition at 75 g/ha (Monochoria vaginalis [6]) | inhibition at 75 g/ha (Scirpus juncoides [7]) | inhibition at 75 g/ha (Digitaria ciliaris [8]) | inhibition at 75 g/ha (Echinochloa crus-galli [9])

Cc1ccccc1CO[C@@H]1C[C@]2(C(C)C)O[C@@]1(C)CC2=O [2-3, (1R,4S,5R)-1-isopropyl-4-methyl-5-((2-methylbenzyl)oxy)-7-oxabicyclo[2.2.1]heptan-2-one]
≥ 80%: pest or weed control at 1200 g/ha [1] | pest or weed control at 1200 g/ha (Scirpus juncoides [2]) | pest or weed control at 1200 g/ha (Monochoria vaginalis [3]) | inhibition at 1200 g/ha (Lindernia pyxidaria) | inhibition at 1200 g/ha (Chenopodium album) | inhibition at 1200 g/ha (Digitaria ciliaris [4]) | inhibition at 1200 g/ha (Echinochloa crus-galli [5]) | inhibition at 75 g/ha (Monochoria vaginalis [6]) | inhibition at 75 g/ha (Scirpus juncoides [7]) | inhibition at 75 g/ha (Digitaria ciliaris [8]) | inhibition at 75 g/ha (Echinochloa crus-galli [9])

CC(C)[C@]12C[C@@H](OCc3ccccc3Cl)[C@](C)(CC1=O)O2 [2-11, (1R,4S,5R)-5-((2-chlorobenzyl)oxy)-1-isopropyl-4-methyl-7-oxabicyclo[2.2.1]heptan-2-one]
≥ 80%: pest or weed control at 1200 g/ha [1] | pest or weed control at 1200 g/ha (Scirpus juncoides [2]) | inhibition at 1200 g/ha (Lindernia pyxidaria) | inhibition at 1200 g/ha (Amaranthus viridis) | inhibition at 1200 g/ha (Chenopodium album) | inhibition at 1200 g/ha (Digitaria ciliaris [4]) | inhibition at 1200 g/ha (Echinochloa crus-galli [5]) | inhibition at 75 g/ha (Digitaria ciliaris [8]) | inhibition at 75 g/ha (Echinochloa crus-galli [9])

CC(C)[C@]12C[C@@H](OCc3c(F)cccc3F)[C@](C)(CC1=O)O2 [2-20, (1R,4S,5R)-5-((2,6-difluorobenzyl)oxy)-1-isopropyl-4-methyl-7-oxabicyclo[2.2.1]heptan-2-one]
≥ 80%: pest or weed control at 1200 g/ha [1] | pest or weed control at 1200 g/ha (Scirpus juncoides [2]) | pest or weed control at 1200 g/ha (Monochoria vaginalis [3]) | inhibition at 1200 g/ha (Lindernia pyxidaria) | inhibition at 1200 g/ha (Amaranthus viridis) | inhibition at 1200 g/ha (Chenopodium album) | inhibition at 1200 g/ha (Digitaria ciliaris [4]) | inhibition at 1200 g/ha (Echinochloa crus-galli [5]) | inhibition at 75 g/ha (Digitaria ciliaris [8]) | inhibition at 75 g/ha (Echinochloa crus-galli [9])

C=C1C[C@]2(C)O[C@@]1(C(C)C)C[C@H]2OCc1ccccc1C [2-72, (1R,4S,5R)-1-isopropyl-4-methyl-5-((2-methylbenzyl)oxy)-2-methylene-7-oxabicyclo[2.2.1]heptane]
≥ 80%: pest or weed control at 1200 g/ha [1] | pest or weed control at 1200 g/ha (Scirpus juncoides [2]) | pest or weed control at 1200 g/ha (Monochoria vaginalis [3]) | inhibition at 1200 g/ha (Lindernia pyxidaria) | inhibition at 1200 g/ha (Amaranthus viridis) | inhibition at 1200 g/ha (Chenopodium album) | inhibition at 1200 g/ha (Digitaria ciliaris [4]) | inhibition at 1200 g/ha (Echinochloa crus-galli [5]) | inhibition at 75 g/ha (Monochoria vaginalis [6]) | inhibition at 75 g/ha (Scirpus juncoides [7]) | inhibition at 75 g/ha (Digitaria ciliaris [8]) | inhibition at 75 g/ha (Echinochloa crus-galli [9])

C=C1C[C@]2(C)O[C@@]1(C(C)C)C[C@H]2OCc1ccccc1F [2-88, (1R,4S,5R)-5-((2-fluorobenzyl)oxy)-1-isopropyl-4-methyl-2-methylene-7-oxabicyclo[2.2.1]heptane]
≥ 80%: pest or weed control at 1200 g/ha [1] | pest or weed control at 1200 g/ha (Scirpus juncoides [2]) | pest or weed control at 1200 g/ha (Monochoria vaginalis [3]) | inhibition at 1200 g/ha (Lindernia pyxidaria) | inhibition at 1200 g/ha (Amaranthus viridis) | inhibition at 1200 g/ha (Chenopodium album) | inhibition at 1200 g/ha (Digitaria ciliaris [4]) | inhibition at 1200 g/ha (Echinochloa crus-galli [5]) | inhibition at 75 g/ha (Monochoria vaginalis [6]) | inhibition at 75 g/ha (Scirpus juncoides [7]) | inhibition at 75 g/ha (Digitaria ciliaris [8]) | inhibition at 75 g/ha (Echinochloa crus-galli [9])

CC(C)[C@]12C[C@@H](OCc3ccc(F)cc3)[C@](C)(CC1=O)O2 [2-349, (1R,4S,5R)-5-((4-fluorobenzyl)oxy)-1-isopropyl-4-methyl-7-oxabicyclo[2.2.1]heptan-2-one]
≥ 80%: pest or weed control at 1200 g/ha [1] | pest or weed control at 1200 g/ha (Scirpus juncoides [2]) | pest or weed control at 1200 g/ha (Monochoria vaginalis [3]) | inhibition at 1200 g/ha (Lindernia pyxidaria) | inhibition at 1200 g/ha (Amaranthus viridis) | inhibition at 1200 g/ha (Chenopodium album) | inhibition at 1200 g/ha (Digitaria ciliaris [4]) | inhibition at 1200 g/ha (Echinochloa crus-galli [5]) | inhibition at 75 g/ha (Digitaria ciliaris [8]) | inhibition at 75 g/ha (Echinochloa crus-galli [9])
